# “Also recorded” adds a separate entry of the source.
# Legend:
# Assay type in all cases: physicochemical
# [1] = Relative humidity stressing experiments
# Text: Samples of Compound I were placed uncovered in approximately 58%, 88%, and 97% relative humidity jars. The samples were stored in the jars for approximately 8 days. The solids were collected and analyzed by XRPD for form identification. […] An aliquot of a mixture of Form A+B was stressed at 88% relative humidity for 23 days. Amorphous Form was stressed at 58% and 88% relative humidity for 23 days.
# [2] = Thermogravimetric analysis (TGA)
# Experimental: Thermogravimetric (TG) analyses were performed using a TA Instruments 2950 thermogravimetric analyzer. Each sample was placed in an aluminum sample pan and inserted into the TG furnace. The furnace was first equilibrated at 25° C., then heated under nitrogen at a rate of 10° C./min, up to a final temperature of 350° C. Nickel and Alumel™ were used as the calibration standards.
# [3] = Moisture sorption/desorption analysis
# Experimental: Moisture sorption/desorption data were collected on a VTI SGA-100 Vapor Sorption Analyzer. Sorption and desorption data were collected over a range of 5% to 95% relative humidity (RH) at 10% RH intervals under a nitrogen purge. Samples were not dried prior to analysis. Equilibrium criteria used for analysis were less than 0.0100% weight change in 5 minutes, with a maximum equilibration time of 3 hours if the weight criterion was not met. Data were not corrected for the initial moisture content of the samples. NaCl and PVP were used as calibration standards. Moisture sorption and desorption study was conducted on a sample of Form A+B. The sample was prepared by crashed cooling crystallization (Example 3, section A.6) of the polymorphic forms from a ethanol:water (95:5) solution of Compound I. The moisture sorption and desorption study was conducted according to the procedures outlined in Example 3, section B.10. The data collected is plotted in FIG. 13 and summarized in Table L. Moisture sorption and desorption study was conducted on a sample of Form E. The sample was prepared by solvent/antisolvent crystallization (Example 3, section A.7) by the addition of acetonitrile to Compound I in water. The moisture sorption and desorption study was conducted according to the procedures outlined in Example 3, section B.10. The data collected is plotted in FIG. 23 and summarized in Table M. Moisture sorption and desorption study was conducted on a sample of Amorphous Form. The sample was prepared by lyophilolization of a solution of Compound I in water (Example 3, section A.9). The moisture sorption and desorption study was conducted according to the procedures outlined in Example 3, section B.10.
# Dehydration experiment = test: Dehydration experiment
# Text: Hydrated samples of Compound I were dehydrated at ambient conditions (2 days) and in an ambient temperature vacuum oven (1 day). The solids were collected and analyzed by XRPD for form identification.
# Aliquots of Form A+B of Compound I were stored at ambient condition for two days and in an ambient temperature vacuum over for one day. The solids were collected and analyzed by XRPD and confirmed to be Form A.
# [4] = Slurry interconversion studies
# Text: An excess amount of Compound I was slurried in test solvent on a rotating wheel for approximately 5 or 7 days. The solids were typically collected by vacuum filtration, air dried in the hood, and analyzed by XRPD for form identification.
# Samples of mixture of Form A and Form B of Compound I were slurried in water and THF:water (9:1), for up to 13 days.
# [5] = Thermogravimetric-infrared (TG-IR) analysis
# Text: Thermogravimetric infrared (TG-IR) analyses were acquired on a TA Instruments thermogravimetric (TG) analyzer model 2050 interfaced to a Magna 560® Fourier transform infrared (FT-IR) spectrophotometer (Thermo Nicolet) equipped with an Ever-Glo mid/far IR source, a potassium bromide (KBr) beamsplitter, and a deuterated triglycine sulfate (DTGS) detector. The TG instrument was operated under a flow of helium at 90 and 10 cc/min for the purge and balance, respectively. Each sample was placed in a platinum sample pan, inserted into the TG furnace, accurately weighed by the instrument, and the furnace was heated from ambient temperature to 250° C. at a rate of 20° C./min. The TG instrument was started first, immediately followed by the FT-IR instrument. Each IR spectrum represents 32 co-added scans collected at a spectral resolution of 4 cm^−1. A background scan was collected before the beginning of the experiment. Wavelength calibration was performed using polystyrene. The TG calibration standards were nickel and Alumel™. Volatiles were identified from a search of the High Resolution Nicolet TGA Vapor Phase spectral library.
smiles,measurement,setting,value
Cn1c(=O)cc(N2CCC[C@@H](N)C2)n(Cc2ccccc2C#N)c1=O.O=C(O)CCC(=O)O [Form A],stability at ambient conditions,"[1]; ambient conditions, conclusion from characterization data",stable
same,form by XRPD after relative humidity stressing,"[1]; approximately 50% relative humidity, 29 days",Form A
same,form by XRPD after relative humidity stressing,"[1]; approximately 58% relative humidity, 29 days",did not exhibit form changes
same,form by XRPD after relative humidity stressing,"[1]; approximately 97% relative humidity, 29 days",did not exhibit form changes; also recorded: Form A
same,TGA weight loss,[2]; heated from 25° C. to 165° C.,insignificant weight loss
Cn1c(=O)cc(N2CCC[C@@H](N)C2)n(Cc2cc(F)ccc2C#N)c1=O.O=C(O)CCC(=O)O [Form A+B],reversible weight change on sorption/desorption,[3],1.2%
same,weight gain on sorption,[3]; 5-95% RH,1.2% weight gain from 5-95% RH
same,weight lost on desorption,[3]; 95-5% RH,1.2% weight lost from 95-5% RH
same,Weight % chg,"[3]; Samp RH 4.83%, 25.10° C., elapsed 445.9 min (desorption)",−0.658%
same,Weight % chg,"[3]; Samp RH 5.14%, 25.05° C., elapsed 91.5 min",−0.665%
same,Weight % chg,"[3]; Samp RH 14.88%, 25.04° C., elapsed 137.8 min (sorption)",−0.184%
same,Weight % chg,"[3]; Samp RH 14.96%, 25.09° C., elapsed 359.7 min (desorption)",0.020%
same,Weight % chg,"[3]; Samp RH 25.03%, 25.07° C., elapsed 165.5 min (sorption)",0.004%
same,Weight % chg,"[3]; Samp RH 25.11%, 25.09° C., elapsed 338.5 min (desorption)",0.149%
same,Weight % chg,"[3]; Samp RH 34.82%, 25.06° C., elapsed 179.7 min (sorption)",0.098%
same,Weight % chg,"[3]; Samp RH 34.92%, 25.06° C., elapsed 319.3 min (desorption)",0.237%
same,Weight % chg,"[3]; Samp RH 44.88%, 25.06° C., elapsed 196.2 min (sorption)",0.208%
same,Weight % chg,"[3]; Samp RH 45.07%, 25.07° C., elapsed 307.3 min (desorption)",0.299%
same,Weight % chg,"[3]; Samp RH 54.95%, 25.06° C., elapsed 208.7 min (sorption)",0.284%
same,Weight % chg,"[3]; Samp RH 55.02%, 25.07° C., elapsed 296.5 min (desorption)",0.353%
same,Weight % chg,"[3]; Samp RH 62.77%, 25.03° C., elapsed 0.1 min (start)",0.000%
same,Weight % chg,"[3]; Samp RH 64.94%, 25.04° C., elapsed 285.2 min (desorption)",0.406%
same,Weight % chg,"[3]; Samp RH 65.00%, 25.08° C., elapsed 219.7 min (sorption)",0.347%
same,Weight % chg,"[3]; Samp RH 75.01%, 25.05° C., elapsed 231.9 min (sorption)",0.406%
same,Weight % chg,"[3]; Samp RH 75.35%, 25.08° C., elapsed 274.2 min (desorption)",0.456%
same,Weight % chg,"[3]; Samp RH 84.92%, 25.09° C., elapsed 243.8 min (sorption)",0.466%
same,Weight % chg,"[3]; Samp RH 85.01%, 25.08° C., elapsed 265.2 min (desorption)",0.510%
same,Weight % chg,"[3]; Samp RH 94.67%, 25.08° C., elapsed 256.6 min (sorption)",0.563%
same,form by XRPD after relative humidity stressing,"[1]; 58% relative humidity, 23 days",Form A
same,form by XRPD after relative humidity stressing,"[1]; 88% relative humidity, 23 days",Form A
same,form by XRPD after dehydration,"Dehydration experiment; ambient conditions, two days",converted to Form A
same,form by XRPD after dehydration,"Dehydration experiment; vacuum oven at ambient temperature, one day",converted to Form A
same,form by XRPD after slurry,"[4]; slurried in water and THF:water (9:1), up to 13 days",either Form A or Form A+B
same,form after slurry,"[4]; slurried in water, water removed by evaporation",converted to Form A
same,water content consistent with weight loss,[5]; from 2.4% weight loss,0.5 to 1.0 moles of water
Cn1c(=O)cc(N2CCC[C@@H](N)C2)n(Cc2cc(F)ccc2C#N)c1=O.O=C(O)CCC(=O)O [A + B],Final Form after slurry (XRPD),"[4]; THF:H2O 9:1, 13 days (approximate)",A + B
Cn1c(=O)cc(N2CCC[C@@H](N)C2)n(Cc2cc(F)ccc2C#N)c1=O.O=C(O)CCC(=O)O [Form D],TGA total weight loss,[2]; equilibration plus 25° C. to 85° C.,approximately 30%
same,water content consistent with total weight loss,[2]; from about 30% total weight loss,approximately 11 moles of water
same,TG-IR weight loss,"[5]; heated from 20° C. to 100° C., evaporation of water",24.0% weight loss when heated from
